Drawing on patent US20240246964A1 (Arbutus Biopharma Corporation, priority 2021, published 2024), this text covers EC50 for 16 molecules.

A value given as a limit tells only on which side of the number the result lay.

For this experiment, the target named is human PD-L1 (Homo sapiens (Human), UniProt Q9NZQ7). Put plainly: T cell activation luciferase reporter cell culture system (T Cell Activation Assay). It counts as cell-based. Particulars: luciferase reporter assay; PD-L1 aAPC/CHO-K1 cells with PD-1 effector Jurkat T cells.
human PD-L1, sequence (Q9NZQ7 19-290): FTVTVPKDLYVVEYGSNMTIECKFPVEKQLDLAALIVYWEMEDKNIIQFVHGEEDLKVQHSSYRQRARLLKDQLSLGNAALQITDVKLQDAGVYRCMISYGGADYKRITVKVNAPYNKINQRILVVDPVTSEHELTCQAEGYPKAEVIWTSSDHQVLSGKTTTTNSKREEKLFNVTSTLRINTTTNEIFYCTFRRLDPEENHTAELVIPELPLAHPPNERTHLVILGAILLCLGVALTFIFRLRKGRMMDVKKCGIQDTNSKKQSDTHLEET
Consider `COc1cc(-c2nccc(-c3cccc(-c4ccc(CNC5CCN(C(C)=O)CC5)c(OC)n4)c3Cl)c2Cl)ccc1CNC1CCOCC1` [Example 392, 1-(4-(((6-(2-chloro-3-(3-chloro-2-(3-methoxy-4-(((tetrahydro-2H-pyran-4-yl)amino)methyl)phenyl)pyridin-4-yl)phenyl)-2-methoxypyridin-3-yl)methyl)amino)piperidin-1-yl)ethan-1-one], for which the EC50 worked out at 17.6 nM.
Under `COc1cc(-c2nccc(-c3cccc(-c4ccc([C@H](C)N)c(OC)n4)c3Cl)c2Cl)ccc1[C@H](C)N` [Example 393, (S)-1-(6-(3-(2-(4-((S)-1-Aminoethyl)-3-methoxyphenyl)-3-chloropyridin-4-yl)-2-chlorophenyl)-2-methoxypyridin-3-yl)ethan-1-amine] stands 416 nM.
Take `COc1nc(-c2cccc(-c3ccnc(-c4ccc(CNC5CCN(C(C)=O)CC5)c(OC(F)F)c4)c3Cl)c2Cl)ccc1CNC1CCN(C(C)=O)CC1` [Example 394, 1-(4-(((6-(3-(2-(4-(((1-Acetylpiperidin-4-yl)amino)methyl)-3-(difluoromethoxy)phenyl)-3-chloropyridin-4-yl)-2-chlorophenyl)-2-methoxypyridin-3-yl)methyl)amino)piperidin-1-yl)ethan-1-one]: the EC50 was determined as 22.2 nM.
The same measure for `CNCc1ccc(-c2nccc(-c3cccc(-c4ccc(CNC)c(OC)n4)c3C)c2Cl)cc1OC` [Example 395, 1-(6-(3-(3-Chloro-2-(3-methoxy-4-((methylamino)methyl)phenyl)pyridin-4-yl)-2-methylphenyl)-2-methoxypyridin-3-yl)-N-methylmethanamine]: 81.8 nM.
Turning to `COc1cc(-c2nccc(-c3cccc(-c4ccc(CN5CC6(CCC(=O)N6)C5)c(OC)n4)c3Cl)c2Cl)ccc1CN1CCC(NC(C)=O)CC1` [Example 401, N-(1-(4-(3-Chloro-4-(2-chloro-3-(6-methoxy-5-((6-oxo-2,5-diazaspiro[3.4]-octan-2-yl)methyl)pyridin-2-yl)phenyl)pyridin-2-yl)-2-methoxybenzyl)piperidin-4-yl)acetamide], the EC50 is 20.6 nM.
Under `COc1cc(-c2nccc(-c3cccc(-c4ccc(CN5CC6(C5)CN(C(C)=O)C6)c(OC)n4)c3Cl)c2Cl)ccc1CN1CCC(NC(C)=O)CC1` [Example 402, N-(1-(4-(4-(3-(5-((6-acetyl-2,6-diazaspiro[3.3]heptan-2-yl)methyl)-6-methoxypyridin-2-yl)-2-chlorophenyl)-3-chloropyridin-2-yl)-2-methoxybenzyl)piperidin-4-yl)acetamide] stands 44.6 nM; under `COc1cc(-c2nccc(-c3cccc(-c4ccc(CNC[C@@H]5CCC(=O)N5)c(OC)n4)c3Cl)c2Cl)ccc1CN1CCC(NC(C)=O)CC1` [Example 403, (S)—N-(1-(4-(3-Chloro-4-(2-chloro-3-(6-methoxy-5-((((5-oxopyrrolidin-2-yl)methyl)amino)methyl)pyridin-2-yl)phenyl)pyridin-2-yl)-2-methoxybenzyl)piperidin-4-yl)acetamide], 18.9 nM; under `COc1cc(-c2nccc(-c3cccc(-c4ccc(CNC5CCN(C(C)=O)CC5)c(OC)n4)c3Cl)c2C#N)ccc1CNC1CCN(C(C)=O)CC1` [Example 404, 2-(4-(((1-Acetylpiperidin-4-yl)amino)methyl)-3-methoxyphenyl)-4-(3-(5-(((1-acetylpiperidin-4-yl)amino)methyl)-6-methoxypyridin-2-yl)-2-chlorophenyl)nicotinonitrile], 23.9 nM.
As for `COc1cc(-c2nccc(-c3cccc(-c4ccc(CNC5CCN(C(C)=O)CC5)c(OC)n4)c3Cl)c2Cl)ccc1CN1CCC(C)(N)CC1` [Example 406, 1-(4-(((6-(3-(2-(4-((4-Amino-4-methylpiperidin-1-yl)methyl)-3-methoxyphenyl)-3-chloropyridin-4-yl)-2-chlorophenyl)-2-methoxypyridin-3-yl)-methyl)-amino)piperidin-1-yl)ethan-1-one], the EC50 was 62.7 nM.
The same measure for `COc1cc(-c2nccc(-c3cccc(-c4ccc(CNC5CCN(C(C)=O)CC5)c(OC)n4)c3Cl)c2Cl)ccc1CNC[C@H]1CNC(=O)C1` [Example 407, (S)-4-(((4-(4-(3-(5-(((1-Acetylpiperidin-4-yl)amino)methyl)-6-methoxypyridin-2-yl)-2-chlorophenyl)-3-chloropyridin-2-yl)-2-methoxybenzyl)amino)methyl)pyrrolidin-2-one]: 20 nM.
Turning to `COc1cc(-c2nccc(-c3cccc(-c4ccc(CN5CC6(CNC(=O)C6)C5)c(OC)n4)c3C)c2Cl)ccc1CN1CC2(CNC(=O)C2)C1` [Example 408, 2-((6-(3-(3-chloro-2-(3-methoxy-4-((7-oxo-2,6-diazaspiro[3.4]octan-2-yl)methyl)phenyl)pyridin-4-yl)-2-methylphenyl)-2-methoxypyridin-3-yl)methyl)-2,6-diazaspiro[3.4]octan-7-one], the EC50 came out at 39.4 nM.
The molecule `COc1cc(-c2nccc(-c3cccc(-c4ccc(CN5CC6(C5)CN(C(C)=O)C6)c(OC)n4)c3C)c2Cl)ccc1CN1CC2(C1)CN(C(C)=O)C2` [Example 409, 1-(6-((6-(3-(2-(4-((6-acetyl-2,6-diazaspiro[3.3]heptan-2-yl)methyl)-3-methoxyphenyl)-3-chloropyridin-4-yl)-2-methylphenyl)-2-methoxypyridin-3-yl)methyl)-2,6-diazaspiro[3.3]heptan-2-yl)ethan-1-one] had an EC50 of 274 nM.
Under `COc1cc(-c2nccc(-c3cccc(-c4ccc(CN[C@H]5CC[C@@H](O)CC5)c(OC)n4)c3Cl)c2Cl)ccc1CN[C@H]1CC[C@@H](O)CC1` [Example 410, (1s,4s)-4-(((6-(2-Chloro-3-(3-chloro-2-(4-((((1s,4s)-4-hydroxycyclohexyl)amino)methyl)-3-methoxyphenyl)pyridin-4-yl)phenyl)-2-methoxypyridin-3-yl)methyl)amino)cyclohexan-1-ol] stands 46.3 nM; under `COc1cc(-c2nccc(-c3cccc(-c4ccc(CN5CCOCC5)c(OC)n4)c3Cl)c2Cl)ccc1CN1CCOCC1` [Example 411, 4-((6-(2-Chloro-3-(3-chloro-2-(3-methoxy-4-(morpholinomethyl)phenyl)pyridin-4-yl)phenyl)-2-methoxypyridin-3-yl)methyl)morpholine], ≥ 10000 nM.
`COc1cc(-c2nccc(-c3cccc(-c4ccc(CN5CCC(O)CC5)c(OC)n4)c3Cl)c2Cl)ccc1CN1CCC(O)CC1` [Example 412, 1-((6-(2-Chloro-3-(3-chloro-2-(4-((4-hydroxypiperidin-1-yl)methyl)-3-methoxyphenyl)pyridin-4-yl)phenyl)-2-methoxypyridin-3-yl)methyl)piperidin-4-ol] registered an EC50 of 15.7 nM.
Under `COc1cc(-c2nccc(-c3cccc(-c4ccc(CNC5CCN(C)C(=O)C5)c(OC)n4)c3Cl)c2Cl)ccc1CNC1CCN(C)C(=O)C1` (stereo not shown) [Example 418, 4-(((6-(2-Chloro-3-(3-chloro-2-(3-methoxy-4-(((1-methyl-2-oxopiperidin-4-yl)amino)methyl)phenyl)pyridin-4-yl)phenyl)-2-methoxypyridin-3-yl)methyl)amino)-1-methylpiperidin-2-one] stands 11.8 nM.

In general, EC50 refers to the concentration at which the effect is half-maximal.
